Laboratory results as given in paper PMC9014410, “Discovery of V-0219: A Small-Molecule Positive Allosteric Modulator of the Glucagon-Like Peptide-1 Receptor toward Oral Treatment for “Diabesity”” (Journal of Medicinal Chemistry, 2022).

Assays:
[1] = tested on: INS-1 β-cells; experiment: Insulin secretion by rat INS-1 / INS-1E insulinoma cells; type: cell-based; settings: INS-1E cells, 0.5 mM glucose, single representative experiment
Experimental: The incubation was done using two types of culture media, defined as low glucose (0.5–3 mM) and high glucose (15 mM). […] Incubation with compounds lasted 30 min, and then the media was collected, centrifuged at 4 °C for 2 min until assayed for insulin using commercial ELISA kit.

[2] = tested on: EndoC-βH1 cells; experiment: Insulin secretion by human pancreatic EndoC-βH1 cells; type: cell-based; settings: high glucose concentration
Experimental: Both cell lines were cultured in RPMI 1640 medium supplemented with 10% fetal calf serum as described. Cell monolayers were incubated at 37 °C in a 7.5% CO2 atmosphere. For insulin secretion studies, cells were detached, washed once with glucose-free medium and placed in 48 multiwell plates (100,000 cells per well) and kept in glucose-free medium for 1.5 h prior to incubation with drugs. The incubation was done using two types of culture media, defined as low glucose (0.5–3 mM) and high glucose (15 mM). […] Incubation with compounds lasted 30 min, and then the media was collected, centrifuged at 4 °C for 2 min until assayed for insulin using commercial ELISA kit.

[3] = target: hGLP-1R (Homo sapiens, UniProt P43220); experiment: cAMP accumulation in HEK-293 cells expressing hGLP-1R (HEK-GLP-1 cells); type: cell-based; settings: HEK293, read-out: Potentiation of GLP-1 Emax at 10 ?M in a cAMP assay (%); 10 ?M compound (supplementary csv)
Experimental: After this time the culture medium was replaced by 20 μL fresh Opti-MEM containing 500 μM IBMX and 100 μM K579 and incubated with gentle stirring for 10 min at rt. […] Concentration-response curves were fitted to a 4-parameter logistic equation by using GraphPad Prism 2.1 software.

hGLP-1R, sequence (P43220 24-463): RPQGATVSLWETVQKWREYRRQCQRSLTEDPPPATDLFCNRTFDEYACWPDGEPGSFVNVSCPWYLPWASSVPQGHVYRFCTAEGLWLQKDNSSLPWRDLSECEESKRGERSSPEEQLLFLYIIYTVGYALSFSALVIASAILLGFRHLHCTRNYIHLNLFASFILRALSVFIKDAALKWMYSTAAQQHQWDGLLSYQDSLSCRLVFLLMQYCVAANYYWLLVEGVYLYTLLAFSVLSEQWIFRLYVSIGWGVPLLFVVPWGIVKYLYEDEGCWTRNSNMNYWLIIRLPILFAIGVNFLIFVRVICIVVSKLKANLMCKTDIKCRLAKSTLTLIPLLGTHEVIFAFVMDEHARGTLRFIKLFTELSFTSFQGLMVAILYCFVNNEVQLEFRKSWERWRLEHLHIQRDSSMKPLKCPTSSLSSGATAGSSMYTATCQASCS

With FC(F)(F)c1ccc(-c2noc(CN3CCC[C@H](CN4CCOCC4)C3)n2)cc1 [(R)-9, (−)-4-{[(3R)-1-({3-[4-(Trifluoromethyl)phenyl]-1,2,4-oxadiazol-5-yl}methyl)piperidin-3-yl]methyl}morpholine] the “Insulin secreted” value ([1]; 0.1 nM test substance) was 19 ng/mL, the “Insulin secreted” value ([1]; 1 nM test substance) was 31 ng/mL and the “Insulin secreted” value ([1]; 10 nM test substance) was 39 ng/mL. The “potentiation of insulin secretion stimulated by GLP-1 (in words)” value [2] was “similarly potentiate insulin secretion stimulated by GLP-1”.

For CC[C@H](C)[C@H](NC(=O)[C@H](Cc1ccccc1)NC(=O)[C@H](CCC(=O)O)NC(=O)[C@H](CCCCN)NC(=O)[C@H](C)NC(=O)[C@H](C)NC(=O)[C@H](CCC(N)=O)NC(=O)CNC(=O)[C@H](CCC(=O)O)NC(=O)[C@H](CC(C)C)NC(=O)[C@H](Cc1ccc(O)cc1)NC(=O)[C@H](CO)NC(=O)[C@H](CO)NC(=O)[C@@H](NC(=O)[C@H](CC(=O)O)NC(=O)[C@H](CO)NC(=O)[C@@H](NC(=O)[C@H](Cc1ccccc1)NC(=O)[C@@H](NC(=O)CNC(=O)[C@H](CCC(=O)O)NC(=O)[C@H](C)NC(=O)[C@@H](N)Cc1c[nH]cn1)[C@@H](C)O)[C@@H](C)O)C(C)C)C(=O)N[C@@H](C)C(=O)N[C@@H](Cc1c[nH]c2ccccc12)C(=O)N[C@@H](CC(C)C)C(=O)N[C@H](C(=O)N[C@@H](CCCCN)C(=O)NCC(=O)N[C@@H](CCCNC(=N)N)C(N)=O)C(C)C [GLP-1, GLP-1(7-36)-NH2, reference compound], the “Insulin secreted” value ([1]; 0.1 nM test substance) was 25 ng/mL, the “Insulin secreted” value ([1]; 1 nM test substance) was 28 ng/mL and the “Insulin secreted” value ([1]; 10 nM test substance) was 34 ng/mL. The “Insulin secreted” value ([1]; 100 nM test substance) was 32 ng/mL.

With Cl.NC(=O)C1CCN(Cc2nc(-c3ccc(C(F)(F)F)cc3)no2)CC1 [compound 7, 1-({3-[4-(Trifluoromethyl)phenyl]-1,2,4-oxadiazol-5-yl}methyl)piperidine-4-carboxamide] the melting point was 187 to 188 °C.

For CCCS(=O)(=O)NC(=O)C1CCN(Cc2nc(-c3ccc(C(F)(F)F)cc3)no2)CC1 [S38], the Emax [3] was < 30%.

In the case of FC(F)(F)c1cccc(-c2noc(CN3CCCC(CN4CCOCC4)C3)n2)c1 (centres unmarked) [S66], the Emax [3] is reported as < 30%.

In the case of O=C(NS(=O)(=O)c1ccc(Cl)cc1)C1CCN(Cc2nc(-c3ccc(C(F)(F)F)cc3)no2)CC1 [S46], the Emax [3] is reported as < 30%.

For O=S(=O)(NC1CCN(Cc2nc(-c3ccc(C(F)(F)F)cc3)no2)CC1)c1ccccc1F [S12], the Emax [3] was < 30%.

For COC(=O)c1cccc(-c2noc(CN3CCCC(CN4CCOCC4)C3)n2)c1 (centres unmarked) [S82], the Emax [3] was < 30%.
